Consider 16 molecules from ChEMBL document CHEMBL1201862, “PubChem BioAssay data set” (2004).

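48-hour exposure; five concentrations; linearly interpolated endpoints. GI50 marks 50% less growth.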 Activity calls are given as the source filed them. No stated cut-off is given here; in the data, active = GI50 up to about 1.1 µM and inactive = higher. Some results are limits rather than exact numbers.

Test systems include UO-31; HCC 2998; HOP-62; RPMI-8226; UACC-62; CAKI-1; U-251; SF-539; IGROV-1; A498; OVCAR-5; A549; 786-0; RXF 393.
What all share (test): NCI tumour cell line growth inhibition, 48 h

Take `CC(=O)NC1=C(C)C(=O)c2c(nc3n2CCC3O)C1=N` (stereo unspecified): the GI50 was 22.9 µM (inactive) in the experiment with UO-31; 21.3 µM (inactive) in the experiment on HCC 2998; 38.8 µM (inactive) in the experiment with HOP-62; > 100 µM (inactive) with RPMI-8226; 4.71 µM (inactive) in the experiment with UACC-62; 13.4 µM (inactive) in the experiment on CAKI-1. In addition, the GI50 in the experiment with U-251 is 13.2 µM (inactive); with SF-539, 4.15 µM (inactive); in the experiment on IGROV-1 it was 18.7 µM (inactive); with A498 it was 27.2 µM (inactive); in the experiment on OVCAR-5, 21.6 µM (inactive); with A549, 30.8 µM (inactive). For the same molecule, the GI50 in the experiment on 786-0 is 18.6 µM (inactive).

For `O=c1cc(-c2ccccc2)[nH]c2cc(F)cc(F)c12`, the GI50 was 37 µM (inactive) with UO-31; 26.5 µM (inactive) in the experiment with HOP-62; 30.1 µM (inactive) with RPMI-8226; 16.1 µM (inactive) in the experiment on UACC-62; 21.8 µM (inactive) in the experiment with CAKI-1; 29.1 µM (inactive) with U-251. The GI50 with RXF 393 was 29.2 µM (inactive); in the experiment with SF-539, 24.4 µM (inactive); with IGROV-1, 37.8 µM (inactive); with OVCAR-5, 43.5 µM (inactive); in the experiment with A549, 20.8 µM (inactive); with 786-0 it was 52.4 µM (inactive).

Take `C1CCC(N=C2N(C3CCCCC3)C(=NC3CCCCC3)N2C2CCCCC2)CC1`: the GI50 with UO-31, with HCC 2998, in the experiment on HOP-62, in the experiment on RPMI-8226, in the experiment with UACC-62 and in the experiment on U-251 was > 100 µM (inactive) in each case. Moreover, the GI50 with RXF 393 was > 100 µM (inactive); in the experiment on IGROV-1, > 100 µM (inactive); in the experiment with A498 it was > 10 µM (inactive); with OVCAR-5, > 100 µM (inactive); with A549 it was > 100 µM (inactive); with 786-0, > 100 µM (inactive).

Regarding `CCN(CC)C(=O)Cc1[nH][nH]c(=O)c1C(=O)N(CC)CC`, the GI50 in the experiment on UO-31, in the experiment on HCC 2998, in the experiment on HOP-62, in the experiment with RPMI-8226, in the experiment on UACC-62 and in the experiment on U-251 was > 100 µM (inactive) in each case. In addition, the GI50 with RXF 393, with SF-539, in the experiment on IGROV-1, in the experiment with A498, with A549 and in the experiment on 786-0 was > 100 µM (inactive) each time.

Regarding `CN(C)CCNC(=O)c1cccc2nc3ccc4cccnc4c3nc12`, the GI50 was 0.205 µM (active) in the experiment on UO-31; 0.635 µM (active) with HCC 2998; 0.393 µM (active) in the experiment with HOP-62; 0.457 µM (active) in the experiment on UACC-62; 0.224 µM (active) in the experiment with CAKI-1; 0.405 µM (active) in the experiment with U-251. The GI50 in the experiment with RXF 393 was 0.167 µM (active); with SF-539, 0.19 µM (active); in the experiment on IGROV-1, 0.359 µM (active); with A498, 0.214 µM (active); in the experiment with OVCAR-5 it was 0.916 µM (active); in the experiment with A549, 0.284 µM (active). The GI50 with 786-0 was 0.454 µM (active).

As for `O=c1[nH]c(=O)n(C2OC3COC2C3O)cc1F` (stereo unspecified), the GI50 in the experiment on UO-31, in the experiment with HCC 2998, in the experiment with HOP-62, with RPMI-8226, in the experiment with CAKI-1 and in the experiment on U-251 was > 100 µM (inactive) throughout. The GI50 in the experiment with RXF 393, in the experiment with OVCAR-5, in the experiment with A549 and in the experiment with 786-0 was > 100 µM (inactive) throughout.

As for `c1ccc(C2=NOC3C4CCC(C4)C23)cc1` (stereo unspecified), the GI50 is > 100 µM (inactive) with UO-31; > 100 µM (inactive) in the experiment on HCC 2998; > 100 µM (inactive) in the experiment with HOP-62; > 100 µM (inactive) in the experiment with RPMI-8226; > 100 µM (inactive) in the experiment with UACC-62; < 0.01 µM (active) with CAKI-1. Moreover, the GI50 in the experiment on U-251, in the experiment on SF-539, in the experiment on IGROV-1, with A498, with OVCAR-5 and with A549 was > 100 µM (inactive) each time. In the experiment with 786-0, the GI50 is > 100 µM (inactive).

Turning to `O=C(Nc1c(O)[nH]c(=S)[nH]c1=O)c1ccc2ccccc2n1`, the GI50 in the experiment on UO-31, in the experiment on HOP-62, with RPMI-8226, in the experiment with UACC-62, in the experiment with CAKI-1 and in the experiment with U-251 was > 100 µM (inactive) in each case. The GI50 with SF-539, in the experiment with IGROV-1, with A498, with A549 and in the experiment on 786-0 was > 100 µM (inactive) each time.

For `CC(=O)CC(=O)/C=C/c1cccs1`, the GI50 was 93.3 µM (inactive) with UO-31; > 100 µM (inactive) with HOP-62; 34.6 µM (inactive) in the experiment with RPMI-8226; 44.6 µM (inactive) in the experiment with UACC-62; > 100 µM (inactive) with CAKI-1; > 100 µM (inactive) in the experiment on U-251. Also, the GI50 is 31.6 µM (inactive) in the experiment with SF-539; > 100 µM (inactive) in the experiment with IGROV-1; 64.9 µM (inactive) with A498; > 100 µM (inactive) with OVCAR-5; > 100 µM (inactive) in the experiment on A549; 99.5 µM (inactive) in the experiment on 786-0.

As to `COc1ccc(/C=C/C(=O)C(C)C)cc1`, the GI50 in the experiment on UO-31 was 80.2 µM (inactive); with HCC 2998, > 100 µM (inactive); in the experiment with HOP-62 it was 43.8 µM (inactive); in the experiment with UACC-62, 45 µM (inactive); in the experiment on CAKI-1, 44.8 µM (inactive); in the experiment with U-251, 34.1 µM (inactive). Moreover, the GI50 with SF-539 is 46.2 µM (inactive); in the experiment on IGROV-1, > 100 µM (inactive); with A498 it was 35.5 µM (inactive); in the experiment on OVCAR-5, > 100 µM (inactive); in the experiment with A549, 69.2 µM (inactive); in the experiment with 786-0, 71.3 µM (inactive).

Regarding `Cc1c2cc[n+](COC(=O)c3ccccc3)cc2c(C)c2c1[nH]c1ccccc12`, the GI50 is 2.03 µM (inactive) in the experiment with UO-31; 1.31 µM (inactive) with HOP-62; 0.569 µM (active) in the experiment with RPMI-8226; 1.5 µM (inactive) in the experiment with UACC-62; 1.4 µM (inactive) in the experiment on CAKI-1; 0.515 µM (active) in the experiment on U-251. Also, the GI50 was 0.416 µM (active) with SF-539; 0.299 µM (active) with IGROV-1; 1.23 µM (inactive) in the experiment on A498; 0.824 µM (active) in the experiment on OVCAR-5; 0.299 µM (active) in the experiment with A549; 0.778 µM (active) in the experiment on 786-0.

For `CCC/C=C1\CCC(CN(C)C)C1=O` (stereo unspecified), the GI50 in the experiment with UO-31 was 12.4 µM (inactive); in the experiment on HCC 2998, 15.8 µM (inactive); with HOP-62 it was 15.7 µM (inactive); in the experiment with RPMI-8226, 0.333 µM (active); in the experiment on UACC-62, 14.6 µM (inactive); in the experiment with CAKI-1, 2.13 µM (inactive). Further, the GI50 was 5.81 µM (inactive) in the experiment with U-251; 10.8 µM (inactive) in the experiment with SF-539; 18.5 µM (inactive) in the experiment on IGROV-1; 0.455 µM (active) in the experiment on A498; 20 µM (inactive) with OVCAR-5; 29.6 µM (inactive) in the experiment on A549. For the same molecule, in the experiment on 786-0, the GI50 was 2.81 µM (inactive).

On to `CCCCCCCCCC(=O)OCC1OC(n2cc(F)c(=O)[nH]c2=O)C(N)C(OC(=O)CCCCCCCCC)C1O` (stereo unspecified), for which the GI50 was 21.6 µM (inactive) with UO-31; 15.5 µM (inactive) in the experiment with HCC 2998; 37.2 µM (inactive) in the experiment on HOP-62; 21.5 µM (inactive) in the experiment on RPMI-8226; 17.9 µM (inactive) in the experiment with UACC-62; 38.2 µM (inactive) in the experiment on CAKI-1. Also, the GI50 was 17.1 µM (inactive) with U-251; 15.9 µM (inactive) in the experiment on RXF 393; 18.4 µM (inactive) in the experiment with SF-539; > 100 µM (inactive) in the experiment with IGROV-1; 15.5 µM (inactive) in the experiment with A498; 18 µM (inactive) in the experiment with A549. Moreover, in the experiment with 786-0, the GI50 was 18.4 µM (inactive).

Turning to `CN[C@@H](C)[C@H](N)c1ccccc1`, the GI50 in the experiment on UO-31, with HCC 2998, in the experiment with RPMI-8226, in the experiment with UACC-62, in the experiment with CAKI-1 and in the experiment on U-251 was > 100 µM (inactive) each time. For the same molecule, the GI50 in the experiment with RXF 393, in the experiment on SF-539, in the experiment on IGROV-1, with A498, with A549 and in the experiment with 786-0 was > 100 µM (inactive) in each case.

For the molecule `O=C1Nc2cc([N+](=O)[O-])c(Br)cc2C1=O`, the GI50 in the experiment on UO-31 was 18.5 µM (inactive); in the experiment on HCC 2998, > 10 µM (inactive); in the experiment on HOP-62, 28.4 µM (inactive); with RPMI-8226, 17.6 µM (inactive); with UACC-62, 18.7 µM (inactive); in the experiment with CAKI-1, 19.1 µM (inactive). Besides, the GI50 with U-251 was > 10 µM (inactive); in the experiment on RXF 393, 24.7 µM (inactive); in the experiment with SF-539, 22.4 µM (inactive); in the experiment with IGROV-1, 17.5 µM (inactive); with A498 it was > 100 µM (inactive); in the experiment with A549, 95.7 µM (inactive). Moreover, the GI50 in the experiment with 786-0 is 18.5 µM (inactive).

Turning to `O=C(Nc1cccc(Cl)c1)C(=O)C(C(=O)c1ccc2ccccc2c1)C1OC(=O)c2ccccc21` (stereo unspecified), the GI50 is 14.1 µM (inactive) in the experiment with UO-31; 10.2 µM (inactive) in the experiment on HCC 2998; 16.8 µM (inactive) in the experiment on HOP-62; 7.67 µM (inactive) in the experiment with RPMI-8226; 15.3 µM (inactive) in the experiment on UACC-62; 18.5 µM (inactive) with CAKI-1. The GI50 is 5.4 µM (inactive) in the experiment on U-251; 7.8 µM (inactive) in the experiment with SF-539; 22.4 µM (inactive) with IGROV-1; 6.01 µM (inactive) in the experiment on A498; 24.8 µM (inactive) with OVCAR-5; 30 µM (inactive) in the experiment with A549. Moreover, the GI50 with 786-0 is 10.6 µM (inactive).
